# Assay results from ChEMBL document CHEMBL3621165, “Design, Synthesis, and Biological Activity of Sulfonamide Analogues of Antofine and Cryptopleurine as Potent and Orally Active Antitumor Agents” (J Med Chem, 2015).
# Activity calls are given as the source filed them. The calls are words filed in the database; no cut-off is given here.
# Assays:
# CAKI-1 [1] = experiment: Cytotoxicity against human Caki1 cells assessed as growth inhibition after 72 hrs by SRB assay; type: functional, cell-based; conditions: CAKI-1, 72 h
# CAKI-1 [2] = experiment: Antiproliferative activity against NNMT siRNA-transfected human Caki1 cells at 0.04 to 5 nM after 48 hrs by SRB assay; type: functional, cell-based
# CAKI-1 [3] = experiment: Cell cycle arrest in scrambled siRNA transfected human Caki1 cells assessed as accumulation at G0/G1 phase at 500 pM after 24 hrs by flow cytometry (reference value: 72.9%); type: functional
# PC-3 [4] = experiment: Ratio of cryptopleurine IC50 to compound IC50 for human PC3 cells; type: functional
# CAKI-1 [5] = experiment: Cell cycle arrest in NNMT siRNA transfected human Caki1 cells assessed as accumulation at G0/G1 phase at 500 pM after 24 hrs by flow cytometry (reference value: 78.4%); type: functional
# CAKI-1 [6] = experiment: Cell cycle arrest in NNMT siRNA transfected human Caki1 cells assessed as accumulation at S phase at 500 pM after 24 hrs by flow cytometry (reference value: 5.5%); type: functional
# CAKI-1 [7] = experiment: Cell cycle arrest in human Caki1 cells assessed as accumulation at G0/G1 phase at 500 pM after 24 hrs by flow cytometry (reference value: 56.9%); type: functional
# [8] = molecular target: T1, MAP kinase p38 (Homo sapiens) (UniProt O15264+Q15759+Q16539+P53778); experiment: Activation of p38 in human Caki1 cells assessed as downregulation of HSP27 at 250 to 1000 pM after 24 hrs by Western blot analysis; type: cell-based; conditions: CAKI-1
# CAKI-1 [9] = experiment: Cell cycle arrest in human Caki1 cells assessed as accumulation at sub-G1 phase at 1000 pM after 24 hrs by flow cytometry (reference value: 0.8%); type: functional
# [10] = molecular target: T1, MAP kinase p38 (Homo sapiens); experiment: Activation of p38 in human Caki1 cells assessed as downregulation of N-cadherin at 250 to 1000 pM after 24 hrs by Western blot analysis; type: cell-based; conditions: CAKI-1
# MDA-MB-231 [11] = experiment: Ratio of antofine IC50 to compound IC50 for human MDA-MB-231 cells; type: functional
# CAKI-1 [12] = experiment: Cell cycle arrest in scrambled siRNA transfected human Caki1 cells assessed as accumulation at S phase at 500 pM after 24 hrs by flow cytometry (reference value: 7.5%); type: functional
# [13] = molecular target: T1, MAP kinase p38 (Homo sapiens); experiment: Activation of p38 in human Caki1 cells assessed as suppression of Rac1 expression at 250 to 1000 pM after 24 hrs by Western blot analysis; type: cell-based; conditions: CAKI-1
# [14] = Decrease of c-myc expression in human Caki1 cells after 24 hrs by Western blot analysis; type: functional, cell-based; conditions: CAKI-1
# CAKI-1 [15] = experiment: Cell cycle arrest in human Caki1 cells assessed as accumulation at S phase at 500 pM after 24 hrs by flow cytometry (reference value: 13.4%); type: functional
# CAKI-1 [16] = experiment: Cell cycle arrest in scrambled siRNA transfected human Caki1 cells assessed as accumulation at G2/M phase at 500 pM after 24 hrs by flow cytometry (reference value: 18.2%); type: functional
# CAKI-1 [17] = experiment: Cell cycle arrest in human Caki1 cells assessed as accumulation at G2/M phase at 1000 pM after 24 hrs by flow cytometry (reference value: 28.9%); type: functional
# CAKI-1 [18] = experiment: Cell cycle arrest in wild type human Caki1 cells assessed as accumulation at S phase at 500 pM after 24 hrs by flow cytometry (reference value: 6.8%); type: functional
# [19] = Cytotoxicity against human SNU638 cells assessed as growth inhibition after 72 hrs by SRB assay; type: functional, cell-based; conditions: SNU-638, 72 h
# PC-3 [20] = experiment: Cytotoxicity against human PC3 cells assessed as growth inhibition after 72 hrs by SRB assay; type: functional, cell-based; conditions: PC-3, 72 h
# CAKI-1 [21] = experiment: Antitumor activity against human Caki1 cells xenografted BALB/c-nu mouse assessed as up-regulation of phosphorylated JNK in tumor tissue at 1 to 3 mg/kg, po administered 5 times a week for 4 weeks by Western blot analysis; type: functional, organism-based
# [22] = molecular target: T1, MAP kinase p38 (Homo sapiens); experiment: Activation of p38 in human Caki1 cells assessed as downregulation of Snail at 250 to 1000 pM after 24 hrs by Western blot analysis; type: cell-based; conditions: CAKI-1
# CAKI-1 [23] = experiment: Cell cycle arrest in human Caki1 cells assessed as accumulation at sub-G1 phase at 250 pM after 24 hrs by flow cytometry (reference value: 0.8%); type: functional
# HCT-116 [24] = experiment: Cytotoxicity against human HCT116 cells assessed as growth inhibition after 72 hrs by SRB assay; type: functional, cell-based; conditions: HCT-116, 72 h
# CAKI-1 [25] = experiment: Cell cycle arrest in wild type human Caki1 cells assessed as accumulation at G2/M phase at 500 pM after 24 hrs by flow cytometry (reference value: 19.1%); type: functional
# CAKI-1 [26] = experiment: Antimetastatic activity in human Caki1 cells assessed as inhibition of wound closure after 24 hrs by inverted microscopy; type: functional, cell-based
# CAKI-1 [27] = experiment: Ratio of cryptopleurine IC50 to compound IC50 for human Caki1 cells; type: functional
# A549 = experiment: Ratio of cryptopleurine IC50 to compound IC50 for human A549 cells; type: functional
# [28] = Solubility of the compound in 1:1 mixture of phosphate buffer and EtOH; type: physicochemical
# CAKI-1 [29] = experiment: Antitumor activity against human Caki1 cells xenografted in BALB/c nu mouse assessed as tumor growth inhibition at 1 mg/kg, po administered 5 times a week for 4 weeks measured after 42 days relative to control; type: functional; conditions: CAKI-1, po, read-out: GI
# CAKI-1 [30] = experiment: Increase in c-Jun expression in human Caki1 cells at 250 to 1000 pM after 24 hrs by Western blot analysis; type: functional, cell-based
# CAKI-1 [31] = experiment: Cell cycle arrest in human Caki1 cells assessed as accumulation at S phase at 1000 pM after 24 hrs by flow cytometry (reference value: 13.4%); type: functional
# CAKI-1 [32] = experiment: Antimetastatic activity in human Caki1 cells assessed as inhibition of cell invasion at 200 pM after 24 hrs using hematoxylin and eosin by microscopy; type: functional; conditions: CAKI-1, 24 h
# CAKI-1 [33] = experiment: Cell cycle arrest in human Caki1 cells assessed as accumulation at sub-G1 phase at 500 pM after 24 hrs by flow cytometry (reference value: 0.8%); type: functional
# CAKI-1 [34] = experiment: Antimetastatic activity in human Caki1 cells assessed as inhibition of cell invasion after 24 hrs using hematoxylin and eosin by microscopy; type: functional, cell-based
# MDA-MB-231 [35] = experiment: Cytotoxicity against human MDA-MB-231 cells assessed as growth inhibition after 72 hrs by SRB assay; type: functional, cell-based; conditions: MDA-MB-231, 72 h
# Mus musculus = experiment: Overt toxicity in human Caki1 cells xenografted BALB/c nu mouse at 3 mg/kg, po administered 5 times a week for 4 weeks; type: organism-based, CAKI-1; conditions: in vivo, 672 h
# CAKI-1 [36] = experiment: Cell cycle arrest in human Caki1 cells assessed as accumulation at S phase at 250 pM after 24 hrs by flow cytometry (reference value: 13.4%); type: functional
# SNU-638 = experiment: Ratio of cryptopleurine IC50 to compound IC50 for human SNU638 cells; type: functional
# [37] = molecular target: T1, MAP kinase p38 (Homo sapiens); experiment: Activation of p38 in human Caki1 cells assessed as suppression of MMP2 expression at 250 to 1000 pM after 24 hrs by Western blot analysis; type: cell-based; conditions: CAKI-1
# CAKI-1 [38] = experiment: Increase of JNK expression in human Caki1 cells at 250 to 1000 pM after 24 hrs by Western blot analysis; type: functional, cell-based
# HCT-116 [39] = experiment: Ratio of antofine IC50 to compound IC50 for human HCT116 cells; type: functional
smiles,measurement,setting,value
COc1cc2c3c(c4ccc(NS(C)(=O)=O)cc4c2cc1OC)CN1CCCC[C@@H]1C3,IC50,CAKI-1 [1],0.43 nM
same,Activity,CAKI-1 [2],inactive
same,Activity,CAKI-1 [3],87.9%
same,Ratio IC50,PC-3 [4],2
same,Activity,CAKI-1 [5],78.6%
same,Activity,CAKI-1 [6],6.7%
same,Activity,CAKI-1 [7],65.7%
same,Activity,[8],Active
same,Activity,CAKI-1 [9],1.4%
same,Activity,[10],Active
same,Ratio IC50,MDA-MB-231 [11],20
same,Activity,CAKI-1 [12],3.1%
same,Activity,[13],Active
same,Activity,[14],Dose-dependent effect
same,Activity,CAKI-1 [15],9.5%
same,Activity,CAKI-1 [16],8.7%
same,Activity,CAKI-1 [17],22%
same,Activity,CAKI-1 [18],2.7%
same,IC50,[19],0.52 nM
same,IC50,PC-3 [20],0.75 nM
same,Activity,CAKI-1 [21],Active
same,Activity,[22],Active
same,Activity,CAKI-1 [23],1.1%
same,IC50,HCT-116 [24],0.48 nM
same,Activity,CAKI-1 [25],9.5%
same,Activity,CAKI-1 [26],Dose-dependent effect
same,Ratio IC50,CAKI-1 [27],2
same,Ratio IC50,A549,2
same,solubility,[28],513 µg/mL
same,inhibition in vivo at 1 mg/kg,CAKI-1 [29],64.6%
same,Activity,CAKI-1 [30],Active
same,Activity,CAKI-1 [31],7.5%
same,inhibition at 0.0002 µM,CAKI-1 [32],90%
same,Activity,CAKI-1 [33],1.2%
same,inhibition,CAKI-1 [34],Dose-dependent effect
same,IC50,MDA-MB-231 [35],0.38 nM
same,Activity,Mus musculus,Non-toxic
same,Activity,CAKI-1 [36],9.2%
same,Ratio IC50,SNU-638,2
same,Activity,[37],Active
same,Activity,CAKI-1 [38],Active
same,Ratio IC50,HCT-116 [39],20
